In patent US11912703B2, “6-azaindole compounds” (BRISTOL-MYERS SQUIBB COMPANY, priority 2017, dated 2024) one finds IC50 data, which are given here for 41 molecules.

The structures appear in SMILES notation. Read-outs that look alike come from different tables or passages of the source.

The target of assay [1] is human TLR8 (Homo sapiens (Human), UniProt Q9NR97). As to the kind of experiment: TLR8 inhibition reporter assay (HEK-Blue SEAP).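 Further: SEAP driven by IFN-β minimal promoter with five NF-κB and AP-1 sites, compounds tested 0.05 nM to 50 µM, 22 h incubation, inhibition relative to agonist plus DMSO wells.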
Assay [2] concerns the target human TLR9 (Homo sapiens (Human), UniProt Q9NR96). As to the kind of experiment: TLR9 inhibition reporter assay (HEK-Blue SEAP).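 Further: SEAP driven by IFN-β minimal promoter carrying five NF-κB and AP-1 sites, 22 h at 37 °C, compounds 0.05 nM–50 µM, inhibition scaled between agonist-plus-DMSO and reference-inhibitor wells.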
Method: HEK-Blue™-cells (Invivogen) overexpressing human TLR7, TLR8 or TLR9 receptors were used for screening inhibitors of these receptors using an inducible SEAP (secreted embryonic alkaline phosphatase) reporter gene under the control of the IFN-β minimal promoter fused to five NF-κB and AP-1-binding sites. Briefly, cells are seeded into Greiner 384 well plates (15000 cells per well for TLR7, 20,000 for TLR8 and 25,000 for TLR9) and then treated with test compounds in DMSO to yield a final dose response concentration range of 0.05 nM-50 μM. After a 30 minute compound pre-treatment at room temperature, the cells are then stimulated with a TLR7 ligand (gardiquimod at a final concentration of 7.5 μM), TLR8 ligand (R848 at a final concentration of 15.9 μM) or TLR9 ligand (ODN2006 at a final concentration of 5 nM) to activate NF-κB and AP-1 which induce the production of SEAP. After a 22 hour incubation at 37° C., 500 CO2, SEAP levels are determined with the addition of HEK-Blue™ Detection reagent (Invivogen), a cell culture medium that allows for detection of SEAP, according to manufacturer's specifications.
Assay [3] addresses human TLR7 (Homo sapiens (Human), UniProt Q9NYK1). As to the kind of experiment: TLR7 inhibition reporter assay (HEK-Blue SEAP). The format is cell-based. The conditions noted are these: HEK-Blue cells overexpressing human TLR7, gardiquimod 7.5 μM stimulation. On the technique in general: In a reporter assay the amount or activity of a reporter protein is the signal.
[4] abbreviates: read-out: TLR8 IC50; HEK-Blue cells overexpressing human TLR8, R848 15.9 μM stimulation, SEAP reporter.
Where [5] appears, read: read-out: TLR9 IC50; HEK-Blue cells overexpressing human TLR9, ODN2006 5 nM stimulation, SEAP reporter.

As usually defined, the IC50 is the concentration that gives 50% inhibition.

Sequence of human TLR9 (Q9NR96 26-1032): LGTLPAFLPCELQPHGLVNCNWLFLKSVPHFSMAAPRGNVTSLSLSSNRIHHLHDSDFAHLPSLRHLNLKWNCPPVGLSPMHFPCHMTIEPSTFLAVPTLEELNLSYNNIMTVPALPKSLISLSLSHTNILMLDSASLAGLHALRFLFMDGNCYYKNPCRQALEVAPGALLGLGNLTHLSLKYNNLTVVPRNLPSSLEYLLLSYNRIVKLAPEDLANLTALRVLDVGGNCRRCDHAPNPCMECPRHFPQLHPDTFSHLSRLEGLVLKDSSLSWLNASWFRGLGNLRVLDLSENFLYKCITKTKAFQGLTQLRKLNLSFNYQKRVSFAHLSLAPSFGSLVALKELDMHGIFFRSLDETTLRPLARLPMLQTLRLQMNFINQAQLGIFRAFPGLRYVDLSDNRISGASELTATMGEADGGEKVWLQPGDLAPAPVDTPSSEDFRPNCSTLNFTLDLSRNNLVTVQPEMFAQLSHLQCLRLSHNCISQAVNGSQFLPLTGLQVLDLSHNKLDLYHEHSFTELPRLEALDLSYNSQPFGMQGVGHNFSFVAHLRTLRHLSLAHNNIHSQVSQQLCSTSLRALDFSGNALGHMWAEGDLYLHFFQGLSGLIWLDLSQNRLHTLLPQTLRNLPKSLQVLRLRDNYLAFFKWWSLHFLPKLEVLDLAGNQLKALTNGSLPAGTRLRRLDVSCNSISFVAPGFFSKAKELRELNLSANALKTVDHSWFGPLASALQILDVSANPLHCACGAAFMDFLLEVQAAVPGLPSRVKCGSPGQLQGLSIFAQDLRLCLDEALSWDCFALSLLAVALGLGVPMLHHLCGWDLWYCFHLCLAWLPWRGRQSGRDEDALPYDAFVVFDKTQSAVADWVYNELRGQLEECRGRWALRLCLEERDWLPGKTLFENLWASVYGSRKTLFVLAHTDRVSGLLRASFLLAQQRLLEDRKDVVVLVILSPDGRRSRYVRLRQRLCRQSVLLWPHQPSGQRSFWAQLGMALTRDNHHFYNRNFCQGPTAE
Sequence of human TLR7 (Q9NYK1 27-1049): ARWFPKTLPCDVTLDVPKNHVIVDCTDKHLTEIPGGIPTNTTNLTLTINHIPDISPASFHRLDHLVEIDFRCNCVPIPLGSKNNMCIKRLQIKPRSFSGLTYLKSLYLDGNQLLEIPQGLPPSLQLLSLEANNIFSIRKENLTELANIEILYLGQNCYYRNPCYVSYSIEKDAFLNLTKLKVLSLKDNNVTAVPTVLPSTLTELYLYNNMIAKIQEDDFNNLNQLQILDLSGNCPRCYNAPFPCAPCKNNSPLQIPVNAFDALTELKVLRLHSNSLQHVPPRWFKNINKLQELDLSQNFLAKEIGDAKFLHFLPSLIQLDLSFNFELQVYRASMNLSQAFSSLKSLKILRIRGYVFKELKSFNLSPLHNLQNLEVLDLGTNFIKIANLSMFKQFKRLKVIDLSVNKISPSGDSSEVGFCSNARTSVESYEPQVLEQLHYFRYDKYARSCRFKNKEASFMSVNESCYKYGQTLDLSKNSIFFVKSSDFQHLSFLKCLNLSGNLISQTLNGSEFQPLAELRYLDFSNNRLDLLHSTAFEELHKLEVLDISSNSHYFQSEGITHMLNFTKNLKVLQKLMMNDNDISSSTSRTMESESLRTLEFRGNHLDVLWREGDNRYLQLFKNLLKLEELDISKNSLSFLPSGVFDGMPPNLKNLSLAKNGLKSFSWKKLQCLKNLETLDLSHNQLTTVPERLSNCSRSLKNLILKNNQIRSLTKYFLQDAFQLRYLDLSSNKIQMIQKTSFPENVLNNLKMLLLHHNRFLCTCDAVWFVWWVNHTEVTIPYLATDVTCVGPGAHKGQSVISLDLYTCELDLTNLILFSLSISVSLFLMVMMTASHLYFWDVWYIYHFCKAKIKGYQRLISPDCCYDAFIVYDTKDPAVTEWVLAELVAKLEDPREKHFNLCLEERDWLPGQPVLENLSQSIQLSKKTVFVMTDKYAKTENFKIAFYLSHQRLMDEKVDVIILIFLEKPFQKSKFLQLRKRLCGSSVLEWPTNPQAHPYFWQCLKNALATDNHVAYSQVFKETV
Sequence of human TLR8 (Q9NR97 27-1041): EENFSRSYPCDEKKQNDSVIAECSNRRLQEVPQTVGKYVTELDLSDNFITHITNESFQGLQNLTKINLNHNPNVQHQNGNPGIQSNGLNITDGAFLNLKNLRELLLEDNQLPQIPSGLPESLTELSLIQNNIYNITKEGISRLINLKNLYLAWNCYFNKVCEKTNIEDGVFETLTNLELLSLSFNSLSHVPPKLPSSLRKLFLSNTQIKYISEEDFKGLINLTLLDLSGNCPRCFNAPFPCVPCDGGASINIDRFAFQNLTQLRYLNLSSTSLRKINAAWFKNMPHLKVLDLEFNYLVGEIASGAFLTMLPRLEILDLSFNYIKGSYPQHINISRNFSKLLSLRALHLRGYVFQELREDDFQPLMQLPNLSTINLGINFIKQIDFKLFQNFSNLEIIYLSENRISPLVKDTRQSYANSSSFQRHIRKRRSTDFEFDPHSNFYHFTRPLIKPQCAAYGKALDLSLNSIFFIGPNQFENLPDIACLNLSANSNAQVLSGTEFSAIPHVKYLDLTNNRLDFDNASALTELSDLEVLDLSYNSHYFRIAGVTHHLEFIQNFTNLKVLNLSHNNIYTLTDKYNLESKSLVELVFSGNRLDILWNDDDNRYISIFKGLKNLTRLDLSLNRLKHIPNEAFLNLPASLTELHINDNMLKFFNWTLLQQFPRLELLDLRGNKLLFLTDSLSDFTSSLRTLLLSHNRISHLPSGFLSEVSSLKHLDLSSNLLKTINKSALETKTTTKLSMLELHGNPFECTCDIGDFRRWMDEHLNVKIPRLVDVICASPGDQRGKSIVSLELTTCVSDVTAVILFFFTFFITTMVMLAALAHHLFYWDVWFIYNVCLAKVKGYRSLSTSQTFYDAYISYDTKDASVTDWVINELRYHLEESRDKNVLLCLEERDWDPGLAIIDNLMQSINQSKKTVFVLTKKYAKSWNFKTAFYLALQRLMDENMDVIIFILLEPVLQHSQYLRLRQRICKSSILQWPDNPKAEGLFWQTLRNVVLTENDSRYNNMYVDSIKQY

For `COc1cc(-c2[nH]c3cnc(C4CCC(NCC(C)(C)OC)C4)cc3c2C(C)C)cn2ncnc12` (stereo not drawn) [Example 123], the IC50 in assay [1] (setting [4]) was 31 nM; in assay [2] (setting [5]), 1110 nM; in assay [3], 26 nM.

`Cc1c(-c2[nH]c3cnc(C4CCC(NC5CCOCC5)CC4)c(C)c3c2C(C)C)cn2ncnc2c1C` (stereo not drawn) [Example 120]: the values for the IC50 in assay [1] (setting [4]), in assay [2] (setting [5]) and in assay [3] were 2 nM, 71 nM and 2.3 nM, respectively.

In the case of `Cc1cc(-c2[nH]c3cnc(C4CCC(NCC(C)(C)O)CC4)c(F)c3c2C(C)C)cn2ncnc12` (stereo not drawn) [Example 49], the IC50 in assay [1] (setting [4]) is 0.62 nM; in assay [2] (setting [5]), 2430 nM; in assay [3], 0.46 nM.

As for `COc1cc(-c2[nH]c3cnc(N4CCN(C(=O)CN(C)C)CC4)c(Cl)c3c2C(C)C)cn2ncnc12` [Example 304], the IC50 stood at 2.2 nM in assay [1] (setting [4]), 505 nM in assay [2] (setting [5]) and 1.5 nM in assay [3].

In the case of `Cc1c(-c2[nH]c3cnc(C4CCC(NCC5(C)COC5)CC4)c(C)c3c2C(C)C)cn2ncnc2c1C` (stereo not drawn) [Example 203], the IC50 in assay [1] (setting [4]) was 9.3 nM; in assay [2] (setting [5]), 513 nM; in assay [3], 27 nM.

For the molecule `CNC(=O)CN(C)C1CCC(c2ncc3[nH]c(-c4cc(OC)c5ncnn5c4)c(C(C)C)c3c2F)CC1` (stereo not drawn) [Example 131], the values for the IC50 in assay [1] (setting [4]), in assay [2] (setting [5]) and in assay [3] were 7.9 nM, 11400 nM and 5 nM, respectively.

Regarding `COCCN1CCC(c2ncc3[nH]c(-c4cc(C)c5ncnn5c4)c(C(C)C)c3c2F)CC1` [Example 183], the IC50 was determined as 3.4 nM in assay [1] (setting [4]), 2450 nM in assay [2] (setting [5]) and 1.8 nM in assay [3].

`CNC(=O)CN1CCN(c2cc3c(C(C)C)c(-c4cc(C)c5ncnn5c4)[nH]c3cn2)CC1` [Example 302]: the IC50 in assay [1] (setting [4]) was more than 3120 nM; in assay [2] (setting [5]) it was more than 50000 nM; in assay [3], 1590 nM.

Consider `COc1cc(-c2[nH]c3cnc(N4CCC(NC(C)C(C)C)CC4)cc3c2C(C)C)cn2ncnc12` (stereo not drawn) [Example 313], for which the figures for the 50% inhibitory concentration (IC50) in assay [1] (setting [4]), in assay [2] (setting [5]) and in assay [3] were 0.27 nM, 2420 nM and 2.9 nM, respectively.

`COc1cc(-c2[nH]c3cnc(C4CCC(N(C)C5COC5)CC4)c(F)c3c2C(C)C)cn2ncnc12` (stereo not drawn) [Example 106]: the IC50 in assay [1] (setting [4]) was 5 nM; in assay [2] (setting [5]), 1950 nM; in assay [3] it was 4.9 nM.

For the molecule `COc1cc(-c2[nH]c3cnc(N4CC5(CN(C)C5)C4)c(F)c3c2C(C)C)cn2ncnc12` [Example 378], the IC50 in assay [1] (setting [4]) came to 3.4 nM; in assay [2] (setting [5]), 5110 nM; in assay [3], 6 nM.

As for `CNC(=O)CN1CCN(c2ncc3[nH]c(-c4cc(OC)c5ncnn5c4)c(C(C)C)c3c2C)CC1` [Example 40], the values for the half-maximal inhibitory concentration (IC50) in assay [1] (setting [4]), in assay [2] (setting [5]) and in assay [3] were 11 nM, 8310 nM and 9.9 nM, respectively.

Regarding `COc1cc(-c2[nH]c3cnc(N4CCN(C5CCN(C(C)C)CC5)CC4)c(F)c3c2C(C)C)cn2ncnc12` [Example 388], the IC50 in assay [1] (setting [4]) turned out to be 0.81 nM; in assay [2] (setting [5]), 1890 nM; in assay [3] it was 2.7 nM.

`Cc1cc(-c2[nH]c3cnc(C4CCC(NC5COC5)CC4)c(F)c3c2C(C)C)cn2ncnc12` (stereo not drawn) [Example 107]: the IC50 in assay [1] (setting [4]) is 4.5 nM; in assay [2] (setting [5]), 2060 nM; in assay [3] it was 3.6 nM.

Regarding `COc1cc(-c2[nH]c3cnc(N4CCN(C(=O)CN(C)C)CC4)c(C)c3c2C(C)C)cn2ncnc12` [Example 154], the IC50 in assay [1] (setting [4]) was 4.4 nM; in assay [2] (setting [5]) it was 1220 nM; in assay [3], 4 nM.

As to `Cc1c(-c2[nH]c3cnc(C4CCN(CC(=O)N(C)C)CC4)cc3c2C(C)C)cn2ncnc2c1C` [Example 31], the IC50 came to 6.2 nM in assay [1] (setting [4]), 132 nM in assay [2] (setting [5]) and 2.1 nM in assay [3].

Take `Cc1cc(-c2[nH]c3cnc(C4CCC(N(C)C(C)C)CC4)c(F)c3c2C(C)C)cn2ncnc12` (stereo not drawn) [Example 108]: the values for the IC50 in assay [1] (setting [4]), in assay [2] (setting [5]) and in assay [3] were 4 nM, 2760 nM and 2.1 nM, respectively.

For `Cc1cc(-c2[nH]c3cnc(C4CCN(C5COC5)CC4)cc3c2C(C)C)cn2ncnc12` [Example 341], the results for the IC50 in assay [1] (setting [4]), in assay [2] (setting [5]) and in assay [3] were 21 nM, 1030 nM and 3.2 nM, respectively.

Turning to `Cc1c(N2CCC(N(C)C(C)C)CC2)ncc2[nH]c(-c3cc(C)c4ncnn4c3)c(C(C)C)c12` [Example 124], the IC50 in assay [1] (setting [4]) came out at 0.65 nM; in assay [2] (setting [5]) it was 905 nM; in assay [3], 0.38 nM.

`COc1cc(-c2[nH]c3cnc(N4CCN(CC(N)=O)CC4)c(F)c3c2C(C)C)cn2ncnc12` [Example 358]: the IC50 in assay [1] (setting [4]) was 3.8 nM; in assay [2] (setting [5]), more than 50000 nM; in assay [3], 3.6 nM.

`Cc1c(-c2[nH]c3cnc(C4CCC(NC5COC5)CC4)c(C)c3c2C(C)C)cn2ncnc2c1C` (stereo not drawn) [Example 121]: the values for the IC50 in assay [1] (setting [4]), in assay [2] (setting [5]) and in assay [3] were 5.9 nM, 759 nM and 2.7 nM, respectively.

As for `Cc1c(-c2[nH]c3cnc(C4CCN(C(C)C)CC4)cc3c2C(C)C)cn2ncnc2c1C` [Example 35], the results for the IC50 in assay [1] (setting [4]), in assay [2] (setting [5]) and in assay [3] were 2.8 nM, 154 nM and 1.7 nM, respectively.

As for `COc1cc(-c2[nH]c3cnc(N4CCN(CC(=O)N(C)C)CC4)cc3c2C(C)C)cn2ncnc12` [Example 300], the IC50 amounted to 1.6 nM in assay [1] (setting [4]), 11900 nM in assay [2] (setting [5]) and 13 nM in assay [3].

For `Cc1c(-c2[nH]c3cnc(C4CCC(NCC(C)(C)C)CC4)c(F)c3c2C(C)C)cn2ncnc2c1C` (stereo not drawn) [Example 200], the IC50 is 1.1 nM in assay [1] (setting [4]), 8780 nM in assay [2] (setting [5]) and 3 nM in assay [3].

Take `Cc1c(-c2[nH]c3cnc(N4CCC(N(C)C(C)C)CC4)c(F)c3c2C(C)C)cn2ncnc2c1C` [Example 52]: the IC50 in assay [1] (setting [4]) stood at 0.42 nM; in assay [2] (setting [5]), 1860 nM; in assay [3] it was 0.98 nM.

For the molecule `COc1cc(-c2[nH]c3cnc(N4CCN(C5CCC5)CC4)c(F)c3c2C(C)C)cn2ncnc12` [Example 391], the figures for the IC50 in assay [1] (setting [4]), in assay [2] (setting [5]) and in assay [3] were 0.9 nM, 4050 nM and 1.4 nM, respectively.

For `COc1cc(-c2[nH]c3cnc(C4CCC(NCC(C)(C)C)CC4)cc3c2C(C)C)cn2ncnc12` (stereo not drawn) [Example 310], the IC50 in assay [1] (setting [4]) was determined as 32 nM; in assay [2] (setting [5]) it was 640 nM; in assay [3], 13 nM.

Take `Cc1cc(-c2[nH]c3cnc(C4CCN(CC(C)(C)O)CC4)c(F)c3c2C(C)C)cn2ncnc12` [Example 128]: the IC50 was determined as 1.4 nM in assay [1] (setting [4]), 2480 nM in assay [2] (setting [5]) and 1.9 nM in assay [3].

`COc1cc(-c2[nH]c3cnc(N4CCN(C(C)C)CC4)c(F)c3c2C(C)C)cn2ncnc12` [Example 384]: the IC50 in assay [1] (setting [4]) was found to be 0.55 nM; in assay [2] (setting [5]), 3260 nM; in assay [3] it was 0.96 nM.

Consider `COc1cc(-c2[nH]c3cnc(C4CCN(CC(=O)N(C)C)CC4)c(C)c3c2C(C)C)cn2ncnc12` [Example 24], for which the IC50 in assay [1] (setting [4]) was determined as 39 nM; in assay [2] (setting [5]), 279 nM; in assay [3], 9.7 nM.

Turning to `Cc1cc(-c2[nH]c3cnc(N4CCC(NC5(C)COC5)CC4)c(F)c3c2C(C)C)cn2ncnc12` [Example 43], the results for the IC50 in assay [1] (setting [4]), in assay [2] (setting [5]) and in assay [3] were 0.6 nM, 12700 nM and 1 nM, respectively.

`Cc1c(-c2[nH]c3cnc(N4CCN(C5COC5)CC4)c(C)c3c2C(C)C)cn2ncnc2c1C` [Example 417, 6-(3-isopropyl-4-methyl-5-(4-(oxetan-3-yl)piperazin-1-yl)-1H-pyrrolo[2,3-c]pyridin-2-yl)-7,8-dimethyl-[1,2,4]triazolo[1,5-a]pyridine]: the results for the IC50 in assay [1] (setting [4]), in assay [2] (setting [5]) and in assay [3] were 13 nM, more than 50000 nM and 16 nM, respectively.

As to `COc1cc(-c2[nH]c3cnc(N4CCC(NC5CCOCC5)CC4)c(F)c3c2C(C)C)cn2ncnc12` [Example 100], the values for the IC50 in assay [1] (setting [4]), in assay [2] (setting [5]) and in assay [3] were 0.25 nM, 2340 nM and 0.8 nM, respectively.

As to `COc1cc(-c2[nH]c3cnc(C4CCC(NC5COC5)CC4)c(C)c3c2C(C)C)cn2ncnc12` (stereo not drawn) [Example 242], the IC50 came to 14 nM in assay [1] (setting [4]), 401 nM in assay [2] (setting [5]) and 11 nM in assay [3].

With `COc1cc(-c2[nH]c3cnc(N4CCC(NC5CCOC5)CC4)c(F)c3c2C(C)C)cn2ncnc12` (stereo not drawn) [Example 103], the IC50 in assay [1] (setting [4]) stood at 0.48 nM; in assay [2] (setting [5]), 5920 nM; in assay [3] it was 0.86 nM.

Take `Cc1cc(-c2[nH]c3cnc(C4CCN(CC5(C)COC5)CC4)c(F)c3c2C(C)C)cc(C)n1` [Example 215]: the IC50 came to 3.7 nM in assay [1] (read-out: TLR8 IC50; HEK-Blue cells overexpressing human TLR8; R848 15.9 μM stimulation; SEAP reporter), 2000 nM in assay [2] (read-out: TLR9 IC50; HEK-Blue cells overexpressing human TLR9; ODN2006 5 nM stimulation; SEAP reporter) and 4.2 nM in assay [3].

Regarding `Cc1c(-c2[nH]c3cnc(N4CCN(CC5CCOCC5)CC4)c(F)c3c2C(C)C)cn2ncnc2c1C` [Example 411], the IC50 stood at 0.18 nM in assay [1] (setting [4]), 11200 nM in assay [2] (setting [5]) and 9.6 nM in assay [3].

`CNC(=O)CN(C)C1CCN(c2ncc3[nH]c(-c4cc(C)c5ncnn5c4)c(C(C)C)c3c2F)CC1` [Example 259]: the figures for the IC50 in assay [1] (setting [4]), in assay [2] (setting [5]) and in assay [3] were 2.6 nM, 16800 nM and 2.1 nM, respectively.

As for `Cc1c(N2CCC(NC3COC3)CC2)ncc2[nH]c(-c3cc(C)c4ncnn4c3)c(C(C)C)c12` [Example 140], the results for the IC50 in assay [1] (setting [4]), in assay [2] (setting [5]) and in assay [3] were 1.4 nM, 3050 nM and 0.53 nM, respectively.

Turning to `CCN(C)C1CCC(c2ncc3[nH]c(-c4cn5ncnc5c(C)c4C)c(C(C)C)c3c2F)CC1` (stereo not drawn) [Example 263], the IC50 came out at 4.1 nM in assay [1] (setting [4]), 5650 nM in assay [2] (setting [5]) and 1.9 nM in assay [3].

Turning to `Cc1c(N2CCC(N3CCC3)CC2)ncc2[nH]c(-c3cc(C)c4ncnn4c3)c(C(C)C)c12` [Example 279], the IC50 in assay [1] (setting [4]) was found to be 1.5 nM; in assay [2] (setting [5]), 1110 nM; in assay [3] it was 0.65 nM.
